# Data taken from a melting point compilation (Tetko et al.; mined from patent text by program, amines drawn as free bases though some values may be those of a salt).
row,melting point,SMILES
1,136 to 140 °C,O=CC=Cc1cn(Cc2cccc([N+](=O)[O-])c2)nn1
2,232 to 236 °C,CCN(Cc1cc(Br)ccc1OCc1ccccc1)c1ncc(C(=O)NCc2nnn[nH]2)s1
3,257 to 259 °C,C/C(=C\c1cccc2c1NCCNC2=O)CCCC(=O)O
4,271 to 272 °C,CCC(=O)NCc1ccc(NC(=O)/C=C/c2cnn(C)c2-c2ccc(F)cc2)cc1
5,196 to 197 °C,Cc1cn(C)c2cc(NC(=O)c3ccc(C(C)(C)O)cc3)ncc12
6,128 °C,CC(=O)OC1CCC2(C)C(=CCC3C2CCC2(C)C(C(C)=O)CCC32F)C1 (configuration not stated)
7,67 to 68 °C,CCOC(=O)c1cc(C(C)=O)on1
8,185 to 186 °C,CCCn1c(=O)c2c(nc(/C=C/c3cccs3)n2C)n(CCC)c1=O
9,145 to 147 °C,O=c1oc(C=Cc2ccccc2)nc2ccccc12
10,129 to 131 °C,O=C1C(=Cn2ccnc2)C(c2ccccc2)Oc2ccccc21 (configuration not stated)
11,166 to 167 °C,CCCCc1c(/C=C/C(=O)O)cc(OC)c2ccccc12
12,210 to 218 °C,Cc1ccc(C2OCCn3ccc(=O)c(O)c32)cc1 (configuration not stated)
13,91 °C,C=Cc1cc2ccccc2[nH]1
14,162 to 163 °C,Nc1ccc(Oc2ncnc(Oc3ccccc3Cl)c2F)c(Cl)c1Cl
15,157 to 160 °C,CC(C)(C)c1cc(-c2ccc([N+](=O)[O-])cc2)cc(C(C)(C)C)c1O
16,228 to 230 °C,CCc1cccc(CC)c1NC(=O)CC1c2ccccc2Oc2ccccc21
17,95 to 97 °C,CCOC(=O)CCCC(=O)c1cn(-c2cccnc2)c2ccccc12
18,200 to 202 °C,N#Cc1ccc(S(=O)(=O)c2ccc(S(N)(=O)=O)s2)c(F)c1
19,149 to 150 °C,Cc1c(C(=O)Cl)ccc2c1C(=O)N(C)S2(=O)=O
20,147 to 149 °C,O=C(NCCNCC1COc2ccccc2O1)C12CC3CC(CC(C3)C1)C2 (configuration not stated)
21,133 to 134 °C,c1cc(-c2n[nH]c3c2Cc2ccc(CN4CCCC4)cc2-3)cs1
22,199 to 201 °C,CCC1c2ccc(C)n2-c2ccc(F)cc2N1S(=O)(=O)c1ccc(O)c(C)c1 (configuration not stated)
23,243 to 245 °C,CSc1nc(N)c(O)c(=O)[nH]1
24,128 to 130 °C,CCOC(=O)c1cnc2c(SCN3CCSCC3)cccn2c1=O
25,151 °C,O=c1c2ccccc2sc2cc(OCC(O)CCl)cc(O)c12 (configuration not stated)

row,melting point,SMILES
1,224 to 226 °C,Nc1ccn([C@H]2C=C[C@@H](O)CC2)c(=O)n1 (racemic)
2,152 to 154 °C,CCc1cccc(CC)c1-n1c(C(=O)O)cnc1SCc1ccccc1
3,238 to 239 °C,CC(C)(C)NS(=O)(=O)c1cccc(NC(=O)c2cnn3c(C4CC4)cc(-c4ccc(Cl)cc4)nc23)c1
4,123 to 124 °C,OCC1CNc2ncccc2O1 (configuration not stated)
5,141 to 143 °C,O=C(COc1cccc(-n2nc(-c3ccc(F)cc3)c3cccnc32)c1)N1CCOCC1
6,87 to 89 °C,OC(c1cscn1)(c1cscn1)C(F)(F)F
7,108 to 109 °C,CC(=O)C(=NNc1cccc(C(F)(F)F)c1)C(C)=O
8,219 to 221 °C,O=c1nc(NCCCOc2cccc(CN3CCCCC3)c2)c2ccccc2[nH]1
9,183 to 185 °C,O=c1c2cc(F)c(N3CCCC3)cc2n(-c2ccc(F)cc2)c(=O)n1O
10,91 °C,O=[N+]([O-])c1c(Cl)ccc(S(=O)(=O)Oc2ccccc2)c1Cl
11,140 to 142 °C,CCOC(=O)NC(=O)NC(=NC(=O)Nc1ccc(Cl)cc1)OC
12,132 °C,CC(C)CNC(=O)c1ccc(C2(F)CC2c2ccc(Br)c(Br)c2)cc1 (configuration not stated)
13,86 to 87 °C,O=C(NCc1cc(C(F)(F)F)cc(C(F)(F)F)c1)c1ccccc1-c1ccccc1
14,187 to 190 °C,CC1CC(=O)C=C(c2ccc(OCC(=O)O)c(Cl)c2Cl)C1 (configuration not stated)
15,186 °C,Cc1ccc(NC(=O)OCC(C)C)cc1Nc1ncc(-c2cccnc2)o1
16,119 to 123 °C,COc1cc(C(=O)N2Cc3ccc(C(=O)N(C)CC(O)CO)n3Cc3ccccc32)ccc1-c1ccccc1C(F)(F)F (configuration not stated)
17,149 to 150 °C,O=C(OCc1ccccn1)c1cccc(-n2cnc3cc(-c4ccccc4)ccc32)c1
18,234 to 236 °C,CC(=O)Nc1ccc(S(=O)(=O)Nc2cccnc2Nc2ccccc2)cc1
19,177 to 179 °C,Cc1ccc(CC2CCN(CCS(=O)c3ccc4[nH]c(=O)oc4c3)CC2)cc1 (configuration not stated)
20,168 to 169 °C,Fc1ccc(CN2CCC(Nc3ccc(C(F)(F)F)nn3)CC2)cc1F
21,98 to 101 °C,OC(CCN1CCC(c2ccccc2)CC1)c1ccc(Cc2ccc(Cl)cc2)cc1 (configuration not stated)
22,44 to 46 °C,N#CCCCCCC(=O)c1ccc(Cl)cc1
23,70 to 80 °C,COc1ccc(C(O)c2cccc(OCc3ccc4ccccc4n3)c2)cc1 (configuration not stated)
24,138 °C,Nc1ccc2c(c1)C(=O)N(CCO)CCO2
25,202 to 204 °C,O=C(c1ccc2c(c1)Cc1ccccc1-2)N1Cc2cccn2Cc2ccccc21

# The remaining lines, values behind:
row,SMILES,melting point
1,COc1cccc2c1OC(CN1CC=C(c3c[nH]c4ncccc34)CC1)CO2 (configuration not stated),207 to 210 °C
2,CC(C)c1cc(S(=O)(=O)c2ccc(N)cc2)cc(N2CCCC2)n1,148 to 150 °C
3,CN(C)Cc1nc(-c2ncn3c2CN(C)C(=O)c2c(Cl)cccc2-3)no1,152 to 153 °C
4,O=C(Nc1ccc(C(=O)N2Cc3cccn3Cc3ccccc32)cc1)c1cccnc1Oc1ccc(Cl)cc1,211 to 212 °C
5,Cc1ccn(-c2ccc(C(=O)N3Cc4cccnc4Nc4ccccc43)c(Cl)c2)n1,192 to 193 °C
6,COc1ccc(CC(C)NC(=O)N(C)O)cc1OC (configuration not stated),78 to 80 °C
7,NC(=O)C(CCc1cc(Cl)ccc1N1CCCCC1)c1ccc(C(=O)O)cc1 (configuration not stated),192 to 195 °C
8,O=C(NCCNC(=O)C1CCNC1)OCc1ccccc1 (configuration not stated),129 to 131 °C
9,CCc1nnc(CCCOc2c(C)cc(-c3noc(C)n3)cc2C)s1,83 to 84 °C
10,O=C(Nc1nccs1)C(=O)c1cn(Cc2ccc(F)cc2)c2ccccc12,233 to 237 °C
11,O=c1[nH]c2ccccc2c(=O)cc1N(CCO)CCO,204 to 205 °C
12,COC(=O)C(=Cc1ccc(OC)c(OC)c1)NC(=O)c1ccccc1,135 to 137 °C
13,Cc1ccc(-c2cnn(C)c2)cc1,107 to 108 °C
14,CC(C)(C)NCC(O)c1ccc(N)c(C#N)c1Cl (configuration not stated),85 to 88 °C
15,CC(=O)Nc1c(C(=O)Cc2ccccc2)[nH]c2cc(Cl)ccc12,258 to 259 °C
16,CCOP(=O)(CC1(O)CC=Cc2ccccc21)OCC (configuration not stated),120 to 121 °C
17,O=S(=O)(Nc1nc2ncccn2n1)c1ccccc1Cl,254 to 256 °C
18,CC(=O)NCC[C@@H]1CCc2ccc3nn(C)c(F)c3c21,155 to 156 °C
19,Cc1cccc(Cl)c1N1CCCN(C(C)C)C1=S,135 to 136 °C
20,COc1ccc2cc([C@H](C)C(=O)NOCC(=O)O)ccc2c1,152 to 153 °C
21,O=C1c2ccccc2C(=O)N1CSc1ccccn1,93 to 94 °C
22,Cc1cc(C)cc(COC2CCC(N)(c3ccccc3)C(OCc3cc(C)cc(C)c3)C2)c1 (configuration not stated),103 to 105 °C
23,Cc1cc(=O)oc2nn(Cc3ccncc3)c(C)c12,177 to 180 °C
24,CN(C)CCOc1ccc2[nH]c(C(=O)N3CC(CCl)c4c3cc([N+](=O)[O-])c3cc(S(C)(=O)=O)ccc43)cc2c1 (configuration not stated),250 to 252 °C
25,NC(=O)C1CCN(C(=O)CNC(=O)CN2CCCC2=O)CC1,217 to 219 °C
26,CN1CCN(c2ccc(C(=O)N3CCCCc4ccccc43)c(Cl)c2)CC1,138 to 140 °C

row,SMILES,melting point
1,COc1cn(C(C)=O)c2ccc(F)c(Cl)c12,114 to 115 °C
2,CCCCCN(CCC12CC3CC(CC(C3)C1)C2)C(=O)NCCc1ccncc1,107 to 118 °C
3,Cc1ccc(S(=O)(=O)NCC2(N3CCN(C)CC3)CCCCC2)cc1,128 to 130 °C
4,CNC(=O)c1ccc(-c2cnc3[nH]c(=O)n(CC4CCOCC4)c3n2)cc1,328 to 330 °C
5,CCCCCCCCc1ccc(CCC(NC(C)=O)(C(=O)OCC)C(=O)OCC)cc1,61 °C
6,CNc1nc(C)c(-c2nc3ccccc3c(=O)n2-c2ccc(Cl)cc2)s1,195 to 197 °C
7,CS(=O)(=O)c1nc2c([nH]1)N(Cc1ccc(Cl)cc1)C1NCCN1C2=O (configuration not stated),282 to 284 °C
8,CC1CSC2=C(O1)c1cc(N3CCCCC3)ccc1C(=O)C2=O (configuration not stated),225 to 226 °C
9,CCCCc1ccc(CC(N)C(=O)O)cc1 (configuration not stated),218 to 223 °C
10,Cc1cc(C(=O)C2CCc3nc[nH]c3C2)c2ccccn12 (configuration not stated),219 to 221 °C
11,CCn1c(=O)n(CC(C)(C)O)c(=O)c2[nH]cnc21,217 to 219 °C
12,CCCCCN(CCC12CC3CC(CC(C3)C1)C2)C(=O)NCCCn1ccnc1,97 to 100 °C
13,N#Cc1c(Br)c(C(F)(F)F)n(COC(=O)C2CC2)c1-c1ccc(Cl)cc1,122 to 123 °C
14,CCOC(=O)c1cc(F)c(C2CNCC2NC(=O)OC(C)(C)C)cc1F (configuration not stated),98 to 100 °C
15,CCCCCCCCNC(=O)N1CCC(c2nc(N)nc3ccccc23)CC1,85 to 87 °C
16,Cc1ccc(-c2ccc(Cl)c(C(=O)NCC34CC5CC(CC(C5)C3)C4)c2)c(C(=O)O)c1,214 to 216 °C
17,COc1cc(Nc2nccc(-c3ccc(N4CC[C@@H](N(C)C)C4)nc3)n2)cc(OC)c1OC,150 to 151 °C
18,CCc1c(CC)n(Cc2ccccc2Cl)c2cc(C(=O)OC)ccc12,86 to 88 °C
19,CC(C)[C@H](NC(=O)N(C)Cc1nc2ccccc2[nH]1)C(=O)N[C@@H](Cc1ccccc1)[C@@H](O)C[C@H](Cc1ccccc1)NC(=O)OCc1cccnc1,110 to 114 °C
20,ClC(Cl)=NC(Cl)(Cl)C(Cl)(Cl)N=C(Cl)Cl,167 °C
21,CCCCCCCCC(O)CNCCCCCCNCC(O)CCCCCCCC (configuration not stated),118 to 127 °C
22,Cn1cncc1C(O)(c1ccc(Cl)cc1)c1ccc2nc(NN)nc(-c3cccc(Cl)c3)c2c1 (configuration not stated),186 °C
23,CC(C)(C)NC(=O)N(Cc1ccccc1)CC(O)C(Cc1ccccc1)NC(=O)C(CC(N)=O)NC(=O)c1ccc2ccccc2n1 (configuration not stated),110 to 112 °C
24,O=C(NCCNCc1cc2cc(O)ccc2o1)C12CC3CC(CC(C3)C1)C2,140 to 143 °C
25,CC1C=C(Nc2ccc(OC(F)(F)F)cc2)N(C)N1 (configuration not stated),80 to 82 °C
26,CS(=O)(=O)c1c2ccccc2c(C=O)c2ccccc12,216 to 217 °C
